ChEMBL document CHEMBL1130913, “Synthesis and antibacterial in vitro activity of novel analogues of nematophin” (1998)
Converted amounts (≈) assume the structure as drawn.

test system: Staphylococcus intermedius; assay: In vitro inhibitory activity in iso sensitest agar against Staphylococcus intermedius strain ATCC 9503; assay type: functional

SMILES	MIC
CC(C)CC(=O)C(=O)NCCc1c[nH]c2ccccc12	1 µg/mL (≈ 3.67 µM)
CCC(C)C(=O)C(=O)NCCc1cn(C(C)C)c2ccccc12 (stereo not given)	2 µg/mL (≈ 6.36 µM)
CCC(C)C(=O)C(=O)NCCc1cn(Cc2ccccc2)c2ccccc12 (stereo not given)	2 µg/mL (≈ 5.52 µM)

test system: Staphylococcus intermedius; assay: In vitro inhibitory activity in iso sensitest agar against Staphylococcus intermedius strain ATCC 29663 in addition with 5%serum; assay type: functional

SMILES	MIC
CCC(C)C(=O)C(=O)NCCc1cn(C(C)C)c2ccccc12 (stereo not given)	> 32 µg/mL
CCC(C)C(=O)C(=O)NCCc1cn(Cc2ccccc2)c2ccccc12 (stereo not given)	> 64 µg/mL

test system: Staphylococcus aureus; assay: In vitro inhibitory activity in iso sensitest agar against Staphylococcus aureus strain ATCC 6538; assay type: functional

SMILES	MIC
CC(C)CC(=O)C(=O)NCCc1c[nH]c2ccccc12	0.125 µg/mL (≈ 0.459 µM)
CCC(C)C(=O)C(=O)NCCc1cn(C(C)C)c2ccccc12 (stereo not given)	0.03 µg/mL (≈ 0.0954 µM)
CCC(C)C(=O)C(=O)NCCc1cn(Cc2ccccc2)c2ccccc12 (stereo not given)	0.125 µg/mL (≈ 0.345 µM)

test system: Staphylococcus hyicus; assay: In vitro inhibitory activity in iso sensitest agar against Staphylococcus hyicus strain ATCC 9622; assay type: functional

SMILES	MIC
CC(C)CC(=O)C(=O)NCCc1c[nH]c2ccccc12	0.03 µg/mL (≈ 0.11 µM)
CCC(C)C(=O)C(=O)NCCc1cn(C(C)C)c2ccccc12 (stereo not given)	0.5 µg/mL (≈ 1.59 µM)
CCC(C)C(=O)C(=O)NCCc1cn(Cc2ccccc2)c2ccccc12 (stereo not given)	1 µg/mL (≈ 2.76 µM)

test system: Staphylococcus hyicus; assay: In vitro inhibitory activity in iso sensitest agar against Staphylococcus hyicus strain ATCC 9622 in addition with 5%serum; assay type: functional

SMILES	MIC
CCC(C)C(=O)C(=O)NCCc1cn(C(C)C)c2ccccc12 (stereo not given)	> 32 µg/mL
CCC(C)C(=O)C(=O)NCCc1cn(Cc2ccccc2)c2ccccc12 (stereo not given)	> 64 µg/mL

test system: Staphylococcus aureus; assay: In vitro inhibitory activity in iso sensitest agar against Staphylococcus aureus strain ATCC 29213 in addition with 5%serum; assay type: functional

SMILES	MIC
CCC(C)C(=O)C(=O)NCCc1cn(C(C)C)c2ccccc12 (stereo not given)	8 µg/mL (≈ 25.4 µM)
CCC(C)C(=O)C(=O)NCCc1cn(Cc2ccccc2)c2ccccc12 (stereo not given)	16 µg/mL (≈ 44.1 µM)

test system: Staphylococcus intermedius; assay: In vitro inhibitory activity in iso sensitest agar against Staphylococcus intermedius strain ATCC 9503 in addition with 5%serum; assay type: functional

SMILES	MIC
CCC(C)C(=O)C(=O)NCCc1cn(C(C)C)c2ccccc12 (stereo not given)	> 32 µg/mL
CCC(C)C(=O)C(=O)NCCc1cn(Cc2ccccc2)c2ccccc12 (stereo not given)	> 64 µg/mL

test system: Staphylococcus aureus; assay: In vitro inhibitory activity in iso sensitest agar against Staphylococcus aureus strain ATCC 25923; assay type: functional

SMILES	MIC
CC(C)CC(=O)C(=O)NCCc1c[nH]c2ccccc12	0.25 µg/mL (≈ 0.918 µM)
CCC(C)C(=O)C(=O)NCCc1cn(C(C)C)c2ccccc12 (stereo not given)	0.03 µg/mL (≈ 0.0954 µM)
CCC(C)C(=O)C(=O)NCCc1cn(Cc2ccccc2)c2ccccc12 (stereo not given)	0.125 µg/mL (≈ 0.345 µM)

test system: Staphylococcus aureus; assay: In vitro inhibitory activity in iso sensitest agar against Staphylococcus aureus strain ATCC 6538 in addition with 5%serum; assay type: functional

SMILES	MIC
CCC(C)C(=O)C(=O)NCCc1cn(C(C)C)c2ccccc12 (stereo not given)	> 32 µg/mL
CCC(C)C(=O)C(=O)NCCc1cn(Cc2ccccc2)c2ccccc12 (stereo not given)	> 64 µg/mL

test system: Staphylococcus hyicus; assay: In vitro inhibitory activity in iso sensitest agar against Staphylococcus hyicus strain ATCC 9621; assay type: functional

SMILES	MIC
CC(C)CC(=O)C(=O)NCCc1c[nH]c2ccccc12	0.25 µg/mL (≈ 0.918 µM)
CCC(C)C(=O)C(=O)NCCc1cn(C(C)C)c2ccccc12 (stereo not given)	1 µg/mL (≈ 3.18 µM)
CCC(C)C(=O)C(=O)NCCc1cn(Cc2ccccc2)c2ccccc12 (stereo not given)	1 µg/mL (≈ 2.76 µM)

test system: Staphylococcus aureus; assay: In vitro inhibitory activity in iso sensitest agar against Staphylococcus aureus strain ATCC 25923 in addition with 5%serum; assay type: functional

SMILES	MIC
CCC(C)C(=O)C(=O)NCCc1cn(C(C)C)c2ccccc12 (stereo not given)	16 µg/mL (≈ 50.9 µM)
CCC(C)C(=O)C(=O)NCCc1cn(Cc2ccccc2)c2ccccc12 (stereo not given)	16 µg/mL (≈ 44.1 µM)

test system: Staphylococcus hyicus; assay: In vitro inhibitory activity in iso sensitest agar against Staphylococcus hyicus strain ATCC 9621 in addition with 5%serum; assay type: functional

SMILES	MIC
CCC(C)C(=O)C(=O)NCCc1cn(C(C)C)c2ccccc12 (stereo not given)	> 32 µg/mL
CCC(C)C(=O)C(=O)NCCc1cn(Cc2ccccc2)c2ccccc12 (stereo not given)	> 64 µg/mL

test system: Staphylococcus intermedius; assay: In vitro inhibitory activity in iso sensitest agar against Staphylococcus intermedius strain ATCC 29663; assay type: functional

SMILES	MIC
CC(C)CC(=O)C(=O)NCCc1c[nH]c2ccccc12	2 µg/mL (≈ 7.34 µM)
CCC(C)C(=O)C(=O)NCCc1cn(C(C)C)c2ccccc12 (stereo not given)	4 µg/mL (≈ 12.7 µM)
CCC(C)C(=O)C(=O)NCCc1cn(Cc2ccccc2)c2ccccc12 (stereo not given)	8 µg/mL (≈ 22.1 µM)

test system: Staphylococcus aureus; assay: In vitro inhibitory activity in iso sensitest agar against Staphylococcus aureus strain ATCC 29213; assay type: functional

SMILES	MIC
CC(C)CC(=O)C(=O)NCCc1c[nH]c2ccccc12	0.25 µg/mL (≈ 0.918 µM)
CCC(C)C(=O)C(=O)NCCc1cn(C(C)C)c2ccccc12 (stereo not given)	0.03 µg/mL (≈ 0.0954 µM)
CCC(C)C(=O)C(=O)NCCc1cn(Cc2ccccc2)c2ccccc12 (stereo not given)	0.125 µg/mL (≈ 0.345 µM)
